The subject of experiment [1] is HIF-1 (HRE-dependent luciferase reporter). The experiment can be described thus: HRE-luciferase assay, screening of HIF-1 inhibitors in HCT116 cells. In kind it is cell-based, human. The note with it: Homo sapiens, HCT-116; HCT116 cells stably expressing HRE-dependent luciferase reporter, hypoxic conditions, 12 hours; means of three experiments. The method, then: HCT116 cells stably expressing the HRE-dependent luciferase reporter were treated with the disubstituted adamantyl derivative prepared in the above example under hypoxic conditions for 12 hours before measuring luciferase activity.
(§1) In HCT116 cells treated with disubstituted adamantyl derivatives, luciferase activity was investigated using HRE-luciferase assay. The HRE-luciferase reporter assay was performed as previously described using the luciferase assay system (Promega, Madison, WI, USA) according to the manufacturer's instructions (Naik, R. et al. Synthesis and Structure-Activity Relationship of (E)Phenoxyacrylic Amide Derivatives as Hypoxia-Inducible Factor (HIF) 1α Inhibitors. J. Med. Chem. 55, 10564-1057 (2012)). Luciferase activity was measured using a Victor X light luminescence reader (PerkinElmer, Boston, MA, USA).
(Reporter assays use an easily measured gene product as a stand-in for the process of interest.)

In experiment [2] the test system is GLUT1, PDK1 and VEGF mRNA. The experiment can be described thus: qPCR of HIF-1 target genes in HepG2 cells. In kind it is cell-based, human. As to conditions: hypoxia, HepG2 cells (FIG. 2E). The method, then: Next, mRNA levels of HIF-1 target genes GLUT1, PDK1 and VEGF were measured. The primer sequences were Fwd 5′-TTTGGCTACAACACTGGAGTC-3′ (SEQ ID NO: 1) and Rev 5′-CATGCCCCCAACAGAAAAGAT-3′ (SEQ ID NO: 2) for GLUT1; Fwd 5′-CAGGACAGCCAATACAAGTGG-3′ (SEQ ID NO: 3) and Rev 5′-CATTACCCAGCGTGACATGAA-3′ (SEQ ID NO: 4) for PDK1; Fwd 5′-CCTTGCTGCTCTACCTCCAC-3′ (SEQ ID NO: 5) and Rev 5′-ATGATTCTGCCCTCCTCCTT-3′ (SEQ ID NO: 6) for VEGFA; and Fwd 5′-CATAGGAAGCTGGGAGCAAG-3′ (SEQ ID NO: 7) and Rev 5′-GCCCTCCAATCAGTCTTCTG-3′ (SEQ ID NO: 8) for RPL13A. […] Taken together, it was identified that LW1564 (compound 21-3) suppressed HIF-1α accumulation through stimulated proteasome degradation, thereby reducing the mRNA expression of the target gene.

The test system of experiment [3] is WI-38 normal lung fibroblasts. The experiment can be described thus: Cell viability by methylene blue colorimetric assay, normal cells WI-38. The note with it: Homo sapiens, methylene blue assay (FIG. 1B), read-out: GI50, growth of normal cells WI-38. In kind it is cell-based. The method, then: Among the newly synthesized adamantyl compounds, it was evaluated how compound 21c (LW1564, Compound 21-3), FIG. 1A) affected proliferation suppression of various cancer cells. Human breast cancer cells (MCF7), human cervical cancer cells (HeLa), human colorectal cancer cells (HCT116, HCT15, LoVo, SW480, SW620 and WiDr), human fibrosarcoma cells (HT1080), human gastric cancer cells (NCI-N87, NUGC3 and SNU484), human liver cancer cells (HepG2, HT17, Huh7, SHJ1 and SK-Hep1), human lung cancer cells (A549 and H1299), human pancreatic cancer cells (AsPC1 and MIA-PaCa2) and normal lung fibroblasts (CCD-34Lu and WI-38) were purchased from the American Type Culture Collection (Manassas, Virginia, USA) or KRIBB Cell Line Bank (Daejeon). For cell culture, cells were cultured in a DMEM medium (Gibco, Grand Island, New York, USA) supplemented with 5% (v/v) fetal bovine serum (WelGENE, Daegu, Korea) and 100 U/ml penicillin and 100 μg/ml streptomycin (Gibco). Cells were maintained at 37° C. in a humidified incubator with 5% CO2, and hypoxia and a multi-gas incubator (Sanyo, Osaka, Japan) was adjusted to 1% O2, 94% N2 and 5% CO2. Cell viability was determined by methylene blue colorimetric assay as described in the “Chou, T. C. […] The dye was eluted with 0.1% HCl (v/v) and quantified at 600 nm on a Molecular Devices EMax (Molecular Devices, CA, USA). […]

For experiment [4], the system named is HIF-1α. The experiment can be described thus: HIF-1α protein accumulation in other cancer cell lines under hypoxia. Type of experiment: cell-based, human. As to conditions: A549, WiDr, MIA-CaCa2 and HCT116 (FIG. 2D).
Experiment [5] relates to ATP production. The experiment can be described thus: ATP production and ATP content (ENLITEN ATP assay kit), HepG2 cells. In kind it is cell-based, human. As for the experimental part: Next, the effect of mitochondrial respiration on ATP production by oxidative phosphorylation was evaluated by comparing the amount of ATP produced by glycolysis decomposition and mitochondrial respiration in the presence of LW1564 (compound 21-3). ATP content was determined as described in “Chou, T. C. Theoretical basis, experimental design, and computerized simulation of synergism and antagonism in drug combination studies. Pharmacol. Rev. 58, 621-681 (2006).” After HepG2 cells were seeded and incubated with LW1564 (compound 21-3) for 6 hours, ATP content was measured using an ENLITEN® ATP assay kit (Promega, Madison, WI, USA) according to the manufacturer's instructions. Under normoxic conditions, HepG2 cells gained 47% of ATP by mitochondrial respiration and 53% by glycolysis decomposition. […] Compensatory upregulation of this degradation in response to suppression of oxidative phosphorylation occurred by AMPK activation, which was induced by a high AMP/ATP ratio.

The test system of experiment [6] is HIF-1α activity. In words: HRE-luciferase assay in HepG2 cells. In kind it is cell-based. The note with it: Homo sapiens; HepG2 cells (FIG. 2A). As for the experimental part: as §1, with “the presence of oxygen, when the proline residue of the oxygen-dependent degradation (ODD) domain of HIF-1α is hydroxylated by prolyl hydroxylase (PHD), HIF-1α degradation is promoted by binding to Von Hippel-Lindau syndrome (VHL) associated” for “HCT116 cells treated”, “VCB-Cul2 E3 ligase that induces proteolysis. […] First, HIF-1α” for “disubstituted adamantyl derivatives, luciferase”, “assay in HepG2 cells treated with LW1564 (compound 21-3).” for “assay.”, “la” for “1α”

In general, IC50 refers to the concentration needed to halve the response being measured. The term GI50 denotes the concentration that inhibits growth by half.

Take `COc1cc2c(cc1OC)CN(C(=O)C13CC4CC(C1)CC(c1ccc(OCC(=O)N5CCN(Cc6ccc(C(F)(F)F)cc6)CC5)cc1)(C4)C3)CC2` [Compound 21c, 2-(4-(3-(6,7-Dimethoxy-1,2,3,4-tetrahydroisoquinoline-2-carbonyl)adamantan-1-yl)phenoxy)-1-(4-(4-(trifluoromethyl)benzyl)piperazin-1-yl) ethanone]: the IC50 in experiment [1] amounted to 1.1 µM. The “mRNA amount of HIF-1 target genes GLUT1, PDK1 and VEGF” value in experiment [2] was “decreased the mRNA amount of GLUT1, PDK1 and VEGF”. Also, in experiment [3], the GI50 is above 20 µM. In addition, the “HIF-1α protein accumulation in various cancer cell lines” value in experiment [4] is on record as “significantly reduced HIF-1α protein accumulation”. In experiment [5] (HepG2 cells (FIG. 3B)), the “glycolysis-derived ATP production” value was “increased” and the “total ATP production, short period of time” value is reported as “slightly decreased total ATP production”. Moreover, in experiment [5] (HepG2 cells (FIG. 3C)), the “intracellular total ATP levels, longer period” value is “significantly decreased intracellular total ATP levels”. In addition, the “mitochondrial-derived ATP production” value in experiment [5] (HepG2 cells, normoxic, untreated cells 47% of ATP by mitochondrial respiration (FIG. 3B)) is 16%. Also, the midpoint of inhibition in experiment [6], the IC50, lay at 1.2 µM.

Values taken from patent publication US12534436B2, “Disubstituted adamantyl derivative or pharmaceutically acceptable salt thereof, and pharmaceutical composition for suppressing cancer growth comprising same as active ingredient” (ONECUREGEN CO., LTD., priority 2020, dated 2026).
